In brackets after ≈: the same amount, converted by molar mass. Several values for one entry are separate records, joined by “and”; a condition that tells them apart may be missing. Equal entries are not always repeated. Entries after “also recorded” stand apart in the source; their conditions may differ. Where two headings read alike, the source gives them in different places.
Columns and labels:
[1] = biological target: 3CLPro (Severe acute respiratory syndrome coronavirus 2, UniProt P0DTD1); experiment: 3CLPro FRET-based inhibition assay; format: biochemical, SARS-CoV-2; conditions: for IC50: FRET, 600 nM 3CLPro, 250 nM substrate; for inhibition at 100 µM: read-out: 3CLPro inhibition
[2] = test system: SARS-CoV-2; experiment: Viral RNA reduction assay (ddPCR) in Vero E6 cells, MOI 0.01; conditions: for SARS-CoV-2 RNA Reduction, activity at 50 µM: MOI 0.01, tested at 50 µM; for EC50: read-out: SARS-CoV-2 RNA Reduction EC50; for Therapeutic Index CC50/EC50: calculated from RNA reduction EC50 values
[3] = test system: Vero E6 cells; conditions: dilutions from 100 µM
[4] = test system: SARS-CoV-2; experiment: microbe, parasite or virus in culture; format: cell-based; conditions: Vero E6 cells, read-out: SARS-CoV-2 IFA, EC50
[5] = test system: Staphylococcus aureus MRSA ATCC 33591; experiment: Broth microdilution MIC
[6] = test system: Enterococcus faecalis 15376 VanA; experiment: Broth microdilution MIC; conditions: 24 h
[7] = test system: Enterococcus faecalis ATCC 29212; experiment: Broth microdilution MIC; conditions: ATCC29212, 24 h
[8] = in vitro; conditions: African green monkey
[9] = test system: Enterococcus faecalis ATCC 51299 VanB; experiment: Broth microdilution MIC
[10] = test system: Staphylococcus epidermidis mecA; experiment: Broth microdilution MIC; conditions: 24 h
[11] = set-up: method as in PMID 32625627; conditions: cited from earlier work
[12] = biological target: Human recombinant cathepsin L (Homo sapiens, UniProt P07711); experiment: Cathepsin L inhibition assay; format: biochemical
[13] = test system: Bacillus subtilis ATCC 6633; experiment: Broth microdilution MIC; conditions: ATCC6633, 24 h
[14] = test system: Staphylococcus aureus MSSA ATCC 29213; experiment: Broth microdilution MIC
[15] = test system: SARS-CoV-2; experiment: microbe, parasite or virus in culture; format: cell-based; conditions: Vero E6 cells, MOI 0.04, three days, XTT, read-out: SARS-CoV-2 CPE, EC50
[16] = biological target: T1, Human recombinant cathepsin B (exopeptidase activity) (Homo sapiens, UniProt P07858); experiment: Cathepsin B exopeptidase inhibition assay; format: biochemical
T1 construct: The Preparation of Catalytically Active Human Cathepsin B from Its Precursor Expressed in Escherichia coli; made in house; host or cells: Escherichia coli

[17] = test system: Staphylococcus epidermidis ATCC 35984 biofilm; experiment: Broth microdilution MIC
[18] = test system: SARS-CoV-2
[19] = test system: SARS-CoV-1; conditions: read-out: IC50 for blocking SARS-CoV-1 entry; cited from earlier work
[20] = test system: SARS-CoV-2; conditions: read-out: IC50 for blocking SARS-CoV-2 entry; cited from earlier work
[21] = Severe acute respiratory syndrome coronavirus 2, Vero C1008, 48 h
[22] = Enterococcus faecalis, 15376VANA
[23] = Enterococcus faecalis, ATCC51299, 24 h
[24] = pH 5.5, substrate Z-Phe-Arg-AMC; read-out: Cathepsin L IC50
[25] = Severe acute respiratory syndrome coronavirus 2, Vero C1008, 72 h
[26] = Staphylococcus epidermidis, ATCC35984, 24 h
[27] = read-out: Cathepsin L IC50; pH 5.5, substrate Z-Phe-Arg-AMC
[28] = read-out: Exopeptidase Cathepsin B IC50; pH 5.0, substrate Abz-Gly-Ile-Val-Arg-Ala-Lys(Dnp)-OH

Sequence of Human recombinant cathepsin L (P07711 114-333): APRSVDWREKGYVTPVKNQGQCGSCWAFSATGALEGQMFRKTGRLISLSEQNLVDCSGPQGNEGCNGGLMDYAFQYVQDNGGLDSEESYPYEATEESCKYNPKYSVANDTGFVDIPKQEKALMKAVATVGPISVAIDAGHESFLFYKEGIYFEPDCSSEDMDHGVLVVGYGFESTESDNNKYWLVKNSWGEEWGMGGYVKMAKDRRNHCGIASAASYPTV

Molecule	IC50 [1] [µM]	CC50 [3] [µM]	MIC ([5]; Staphylococcus aureus, 24 h) [µg/mL]	MIC [6, 22] [µg/mL]	MIC [7] [µg/mL]	MIC [9, 23] [µg/mL]	MIC ([10]; Staphylococcus epidermidis) [µg/mL]	MIC [13] [µg/mL]	MIC ([14]; Staphylococcus aureus, 24 h) [µg/mL]	MIC [17, 26] [µg/mL]	Therapeutic Index CC50/EC50 [18]	IC50 [12, 27] [µM]	IC50 [16, 28] [µM]	further results
CC(/C=C/C=C(C)/C=C/C(=O)O)=C\C=C\C=C(C)\C=C\C=C(C)\C=C\C(=O)O (stereo in doubt) [Compound 1d, norbixin]	36.1 ± 11.7	> 100												SARS-CoV-2 RNA Reduction, activity at 50 µM ([2]; Vero E6 cells): completely inactive; SARS-CoV-2 RNA Reduction, activity at 50 µM ([2]; Vero E6 cells, listed as 1d (norbixin)): not active at 50 µM
COC(=O)/C=C/C(C)=C\C=C\C(C)=C\C=C\C=C(C)\C=C\C=C(C)\C=C\C(=O)O [Compound 1a, Bixin, reference compound]			512 (≈ 1300 µM)	512 (≈ 1300 µM)	512 (≈ 1300 µM)	512 (≈ 1300 µM)	512 (≈ 1300 µM)	512 (≈ 1300 µM)	512 (≈ 1300 µM)	512 (≈ 1300 µM)				inhibition at 100 µM [1]: 56%; EC50 ([4]; Severe acute respiratory syndrome coronavirus 2, Vero C1008, 72 h, MOI 0.04, three days, dilutions from 100 µM): 28 ± 8.8 µM; EC50 [2, 21]: 5.9 ± 1.7 µM; Therapeutic Index CC50/EC50 [2]: >17; CC50 [8]: > 100 µM; acceptable daily intake [11]: 6 mg/kg body weight; IC50 [12, 24]: 41.9 ± 1.12 µM; EC50 [15, 25]: 14 ± 3.5 µM; IC50 ([16]; pH 5.0, substrate Abz-Gly-Ile-Val-Arg-Ala-Lys(Dnp)-OH; read-out: Exopeptidase Cathepsin B IC50): 14.6 ± 1.71 µM
COC(=O)/C(C)=C/C=C/C(C)=C/C=C/C=C(C)/C=C/C=C(\C)C(=O)O [Compound 1b, crocetin monomethyl ester]														inhibition at 100 µM [1]: 24%; SARS-CoV-2 RNA Reduction, activity at 50 µM ([2]; Vero E6 cells): did not show antiviral activity; also recorded: not active at 50 µM; melting point: 204 to 205 °C
CC1=C(/C=C/C(C)=C/C=C/C(C)=C/C=C/C=C(C)/C=C/C=C(\C)C(=O)O)C(C)(C)CCC1 [Compound 1c, β-apo-8′-carotenoic acid]	73 ± 7.1													EC50 ([4]; Severe acute respiratory syndrome coronavirus 2, Vero C1008, MOI 0.04, * measurement from 50 µM): 31 ± 7.9 µM; EC50 [2, 21]: 15 ± 2 µM; Therapeutic Index CC50/EC50 [2]: >6.7; CC50 at 3 days [8]: > 100 µM; melting point: 194 to 195 °C; IC50 [12, 24]: 76 ± 1.74 µM; EC50 [15, 25]: 14 ± 2.2 µM; IC50 ([16]; read-out: Exopeptidase Cathepsin B IC50): 21.3 ± 1.2 µM
CC(=O)N[C@H]1[C@H](O[C@@H]2c3ccc(c(Cl)c3)Oc3cc4cc(c3O)Oc3ccc(cc3Cl)C[C@H]3NC(=O)[C@H](N)c5ccc(O)c(c5)Oc5cc(O)cc(c5)[C@H](NC3=O)C(=O)N[C@H]4C(=O)N[C@H]3C(=O)N[C@@H]2C(=O)N[C@H](C(=O)O)c2cc(O)cc(O)c2-c2cc3ccc2O)O[C@H](CO)[C@@H](O)[C@@H]1O [Compound 2, Teicoplanin pseudoaglycone]														inhibition at 200 µM ([1]; at 200 μM): 34%; inhibition at 50 µM ([12]; read-out: Cathepsin L relative inhibition): 0.04%; inhibition at 50 µM ([16]; read-out: Exopeptidase Cathepsin B relative inhibition): 7.8%
COC(=O)/C=C/C(C)=C\C=C\C(C)=C\C=C\C=C(C)\C=C\C=C(C)\C=C\C(=O)N[C@H]1C(=O)N[C@@H]2Cc3ccc(c(Cl)c3)Oc3cc4cc(c3O)Oc3ccc(cc3Cl)[C@@H](O[C@@H]3O[C@H](CO)[C@@H](O)[C@H](O)[C@H]3NC(C)=O)[C@@H]3NC(=O)[C@H](NC(=O)[C@@H]4NC(=O)[C@@H](NC2=O)c2cc(O)cc(c2)Oc2cc1ccc2O)c1ccc(O)c(c1)-c1c(O)cc(O)cc1[C@@H](C(=O)O)NC3=O [Compound 5a]	13.9 ± 1.73	> 100	0.5 (≈ 0.281 µM)	16 (≈ 9 µM)	16 (≈ 9 µM)	16 (≈ 9 µM)	16 (≈ 9 µM)	32 (≈ 18 µM)	16 (≈ 9 µM)	0.5 (≈ 0.281 µM)	>17	42.4 ± 1.86	47.9 ± 1.07	
COC(=O)/C(C)=C/C=C/C(C)=C/C=C/C=C(C)/C=C/C=C(\C)C(=O)N[C@H]1C(=O)N[C@@H]2Cc3ccc(c(Cl)c3)Oc3cc4cc(c3O)Oc3ccc(cc3Cl)[C@@H](O[C@@H]3O[C@H](CO)[C@@H](O)[C@H](O)[C@H]3NC(C)=O)[C@@H]3NC(=O)[C@H](NC(=O)[C@@H]4NC(=O)[C@@H](NC2=O)c2cc(O)cc(c2)Oc2cc1ccc2O)c1ccc(O)c(c1)-c1c(O)cc(O)cc1[C@@H](C(=O)O)NC3=O [Compound 5b]		> 100	2 (≈ 1.16 µM)	8 (≈ 4.63 µM)	4 (≈ 2.32 µM)	8 (≈ 4.63 µM)	2 (≈ 1.16 µM)	16 (≈ 9.27 µM)	8 (≈ 4.63 µM)	0.5 (≈ 0.29 µM)	>19.2	103 ± 1.12	99.5 ± 1.16	
CC(=O)NC1C(OC2c3ccc(c(Cl)c3)Oc3cc4cc(c3O)Oc3ccc(cc3Cl)CC3NC(=O)C(NC(=O)C(C)=CC=CC(C)=CC=CC=C(C)C=CC=C(C)C=CC5=C(C)CCCC5(C)C)c5ccc(O)c(c5)Oc5cc(O)cc(c5)C(NC3=O)C(=O)NC4C(=O)NC3C(=O)NC2C(=O)NC(C(=O)O)c2cc(O)cc(O)c2-c2cc3ccc2O)OC(CO)C(O)C1O (stereo not shown) [Compound 5c]	34.5 ± 12.5	> 100	1 (≈ 0.55 µM)	8 (≈ 4.4 µM)	4 (≈ 2.2 µM)	8 (≈ 4.4 µM)	0.5 (≈ 0.275 µM)	16 (≈ 8.81 µM)	8 (≈ 4.4 µM)	0.5 (≈ 0.275 µM)	>22.7	47.1 ± 1.05	56.5 ± 1.06	
COC(=O)/C=C/C(C)=C\C=C\C(C)=C\C=C\C=C(C)\C=C\C=C(C)\C=C\C(=O)N[C@H]1C(=O)N[C@H]2C(=O)N[C@H](C(=O)N[C@H]3C(=O)N[C@H]4C(=O)N[C@H](C(=O)N[C@H](C(=O)OC)c5cc(O)cc(O)c5-c5cc4ccc5O)[C@H](O)c4ccc(cc4)Oc4cc3cc(c4O)Oc3ccc(cc3)[C@H]2O)c2cc(O)c(C)c(c2)Oc2cc1ccc2O [Compound 7]			64 (≈ 41.3 µM)	256 (≈ 165 µM)	32 (≈ 20.6 µM)	64 (≈ 41.3 µM)	64 (≈ 41.3 µM)	32 (≈ 20.6 µM)	64 (≈ 41.3 µM)	64 (≈ 41.3 µM)				
teicoplanin [Compound 3, reference compound]		> 100			2			0.5						3CLPro inhibition ([1]; at 200 μM): 13% at 200 μM; EC50 ([4]; MOI 0.04, three days, dilutions from 100 µM): 18 ± 5.4 µM; EC50 ([2]; Vero E6 cells, MOI 0.01, 48 h, ddPCR of supernatant): 5.6 ± 1.3 µM; MIC ([5]; Staphylococcus aureus MRSA ATCC 33591, 24 h): 0.5 µg/mL; MIC ([6]; Enterococcus faecalis 15376 VanA): 256 µg/mL; IC50 [19]: 3.76 µM; MIC ([9]; Enterococcus faecalis ATCC 51299 VanB, 24 h): 4 µg/mL; MIC ([10]; Staphylococcus epidermidis mecA): 16 µg/mL; IC50 [20]: 1.66 µM; Cathepsin L relative inhibition ([12]; at 50 μM): 5.07% at 50 μM; Cathepsin L relative inhibition ([12]; at 50 μM; listed as teicoplanin): 5%; MIC ([14]; Staphylococcus aureus MSSA ATCC 29213, 24 h): 0.5 µg/mL; EC50 [15]: 15.7 µM and 16 µM; Exopeptidase Cathepsin B relative inhibition ([16]; at 50 μM): 0.45% at 50 μM; MIC ([17]; Staphylococcus epidermidis ATCC 35984 biofilm, 24 h): 2 µg/mL
